US7595055B2, “Pharmaceutical composition comprising an extract or compounds isolated from Elfvingia applanata for the prevention and the treatment of diabetes and diabetic complications” (priority 2003, dated 2009)
Where two headings read alike, the source gives them in different places.

Target: T1, rat lenses aldose reductase (Rattus norvegicus, UniProt P07943)
T1 construct: The supernatant fraction of the rat lens homogenate was prepared in accordance with the procedure described in literature; from tissue; host or cells: lens of SD rats
Experiment: Inhibitory effect on rat lens aldose reductase activity in vitro
Format: biochemical
Conditions: for IC50: rat lens aldose reductase, DL-glyceraldehyde substrate, NADPH decrease at 340 nm
Method: Crude aldose reductase (AR) was prepared as follows: rat lense were removed from SD rats weighing 250-280 g and frozen until use. The supernatant fraction of the rat lens homogenate was prepared in accordance with the procedure described in literature (Hayman, S. & Kinoshita, J. H.; J. Biol. Chem., 240, pp 877-882, 1965). Partially purified enzyme with a specific activity of 6.5 U/mg was routinely used to rest enzyme inhibition.
(2) Measurement of Aldose Reductase Activity AR activity was assayed spectrophotometrically by measuring the decrease in absorption of NADPH at 340 nm over a 5 min with DL-glyceraldehyde as a substrate (Sato, S and Kador, P. F., Biochem. Pharmacol., 40, pp 1033-1042, 1990). Each 1.0 ml of cuvette containing equal units of enzyme, 0.10M sodium phospate buffer (pH 6.2), 0.3 mM NADPH with or without 10 mM substrate and the enzyme inhibitor. The concentration of inhibitors giving 50% inhibition of enzyme activity (IC50) was calculated from the lease-squares regression line of the logarithmic concentration plotted against the remaining activity.

## O=C(O)c1cc(O)ccc1O [2,5-dihydroxybenzoic acid, 2,5-dihydroxy benzoic acid]
read-out: IC50 (converted)
  IC50: 256 µM

## CCCCCCCC[C@@H](O)C(=O)N[C@@H](CO[C@@H]1OC(CO)[C@@H](O)C(O)C1O)[C@H](O)/C=C/CC/C=C(\C)CCCC (stereo partly shown) [Cerebroside]
read-out: IC50 (converted)
  IC50: 52.3 µM

## O=Cc1ccc(O)c(O)c1 [Protocatechualdehyde, protocatechualdehyde]
read-out: IC50 (converted)
  IC50: 5.21 µM

## O=C(O)CC1(CC(=O)O)CCCC1 [TMG, tetramethylene glutaric acid]
Concentration 0.1 (unit not given)
  inhibition (%): 29.8%
Concentration 1 (unit not given)
  inhibition (%): 53.7%
Concentration 10 (unit not given)
  inhibition (%): 82.1%
  IC50: 0.63 µg/mL
